Read-outs that look alike come from different tables or passages of the source.
Assays:
[1] = test system: HCT116p53KO xenografts; assay: Subcutaneous xenograft, drug-resistant tumors; settings: for average volume of the tumor masses: after 28 days, 5FU 60 mg/kg i.p. twice a week, alone or combined, control ≈955
[2] = test system: HCT116 xenografts; assay: Subcutaneous xenograft, drug-sensitive tumors; settings: for average volume of the tumor masses: after 28 days, alone or combined, control ≈435; for increase of the tumor doubling time / reduction in the tumor volume: 5FU versus untreated or ibrutinib-treated group p<0.05
[3] = test system: HCT116p53KO, DLD-1 and SW480 cell lines; assay: cells; settings: Homo sapiens, 72 h, read-out: cell mortality
Experimental: The tumor cell line initially used was HCT116p53KO (which differs from the wild type (wt) HCT116 due to the lack of gene p53), related to the colon tumor, while further detailed studies of specific genes were carried out on other drug-resistant tumor cell lines of the colon, such as DLD-1 and SW480, as well as on tumor cell lines of the lung and ovary. In particular, all cell lines that were the object of the analysis, were related to tumors of epithelial type.

[4] = test system: HCT116p53KO cells; assay: Calcein cell viability assay, ibrutinib with or without 5FU; type: cell-based, human; settings: 72 hr; for percentage of live HCT116p53KO cells (100% = living cells at day 0): without ibrutinib 177.5%
Experimental: (§1) 100% represent the percentage of living cells at day 0, before starting the treatment.
(§2) Viability was evaluated after 72 hr of incubation by calcein assay. 100% represent the percentage of living cells at day 0, before starting treatment with the drugs. […] At the end of the treatment, cell viability was evaluated by calcein assay. 100% represent the percentage of living cells at day 0, before starting treatment with the drugs.

[5] = test system: HCT116 cells; settings: 200 μM 5FU, 72 hr
Experimental: as §1, §2

[6] = test system: HCT116 overexpressing p65BTK (HCT116-p65BTK); settings: 200 μM 5FU, 72 hr
Experimental: as §2

[7] = test system: tumor cells of the colon-rectum in advanced phase; settings: therapy based on 5FU; cited from earlier work
[8] = test system: HCT116 cells; settings: 72 hr
[9] = test system: HCT116p53KO cells; settings: 200 μM 5FU, 20 μM ibrutinib, singly or combined, 72 hr
[10] = test system: wt HCT116 cells; assay: cells; settings: Homo sapiens, HCT-116, 72 h, read-out: cell mortality
[11] = test system: HCT116p53KO cells; assay: Short-term viability under targeted therapy with or without ibrutinib (MTT); type: cell-based, human; settings: 25 μg/ml bevacizumab, 10 μg/ml cetuximab or 75 μg/ml panitumumab alone, 72 hr
[12] = test system: HCT116p53KO cells; assay: Reversion of 5FU resistance by functional blocking of BTK (cell death); type: cell-based, human; settings: 200 μM 5FU, 72 hr; agents compared with each other
Text: FIG. 8 is a graph illustrating the reversion of the resistance to a chemotherapeutic drug of tumor cell line HCT116p53KO carried out by means of functional blocking of the gene BTK obtained with different methods.
In FIG. 8, the results of the comparison test are reported in a graph of the functional blocking of the BTK gene by means of plasmids (e.g., encoding p68BTK), siRNA or LFM-A13 in samples of HCT116p53KO cells treated with 5FU. […] In detail, FIG. 8 compares the percentages of cell deaths in the presence of 200 μM 5FU (72 hr treatment) upon wt HCT116 cells and HCT116p53KO drug resistant cells with or without (symbol “empty” and “−”) specific depletions of BTK following transient siRNA transfection (symbol “BTKi”), stable retroviral-mediated RNA interference (symbol “shBTK”), and using LFMA13, an inhibitor compound of BTK.

[13] = test system: A549 cells (lung tumor); assay: Cell death with or without BTK inhibition by LFM-A13; type: cell-based, human; settings: 200 μM 5FU, 50 μM OxPt, or the combination of the two
Text: (§3) The diminution of the resistance to chemotherapeutic drugs following the functional blocking of the gene BTK by means of LFM-A13 was further confirmed by tests conducted in vitro on epithelial tumor cell lines different from those of the colon. In FIG. 11 levels of BTK have been investigated, by means of Western blot, in several different epithelial carcinoma cell lines showing that the kinase is expressed in most of them. In particular, in FIGS. 12a and 12b, graphs were reported of the reversion tests obtained on SKOV cell lines (related to an ovarian tumor) and A549 cell lines (related to a lung tumor).
(§4) In detail, FIG. 12a compares the percentages of cell deaths in the absence (symbol “NT” and “−”) and presence of 200 μM 5FU, 50 μM OxPt, and the combination of the two upon resistant ovarian (SKOV) cells with or without BTK inhibition through the usage of LMFA13. […] FIG. 12b compares the percentages of cell deaths in the absence (symbol “NT” and “−”) and presence of 200 μM 5FU, 50 μM OxPt, and the combination of the two upon resistant lung (A549) cells with or without BTK inhibition through the usage of LMFA13.

[14] = test system: SKOV cells (ovarian tumor); assay: as above; type: cell-based, human; settings: 200 μM 5FU, 50 μM OxPt, or the combination of the two
Text: as §3, §4

[15] = test system: HCT116p53KO cells; assay: Caspase 3/7 activation assay; type: cell-based, human; settings: 5FU-treated cells in the presence of LFM-A13; luminometric assay
Text: FIG. 14 is a graph illustrating the results of […] caspase activation assays after 72 hrs and 96 hrs in HCT116 and HCT116p53KO colon carcinoma cells treated with 5FU, BTK inhibition, or the combination of the two.
The results have shown that BTK levels determine the sensitivity of tumor cells to 5FU and that BTK inhibition reverses drug-resistance. […] The same finding is also supported by the graph reported in FIG. 14, evaluating the level of caspase 3/7 activation upon 5FU treatment in HCT116p53KO resistant cells in the presence or in the absence of BTK inhibitor LFM-A13. High levels of caspase 3/7 activation, measured by means of a luminometric assay as RLU/number of cells, are observed in 5FU-treated HCT116p53KO cells only when BTK is inhibited.

[16] = test system: 5FU-resistant, p53-null (HCT116p53KO, SW480 and HT-29) cell lines; assay: Calcein cell viability assay, ibrutinib dose range; type: cell-based, human; settings: highest concentration (range 0 to 30 μM), 72 hours
Text: as §1

[17] = test system: HCT116p53KO, SW480, DLD-1 and HCT116 cell lines; settings: up to 10 μM, 72 hours
[18] = test system: SW480 colon cancer cells; settings: 72 hr
Experimental: FIG. 26a: SW480; FIG. 26b: HT-29.
as §2
100% represent the percentage of living cells at day 0, before starting treatment with the drugs.

[19] = test system: HT-29 colon cancer cells; settings: with 200 μM 5FU, 72 hr
Experimental: Cells were treated for 72 hrs in absence of any drug or in presence of FU 200 μM; 1 μM AVL-292; 1 μM AVL-292+5FU 200 μM; 5 μM AVL-292; 5 μM AVL-292+5FU 200 μM; 10 μM AVL-292; […]; viability was evaluated at the end of the incubation using the calcein assay. FIG. 26a: SW480; FIG. 26b: HT-29.
In the experiments shown in FIG. 26 SW480 and HT-29 colon carcinoma cell lines were grown in vitro for 72 hr in the presence of different concentrations of AVL-292, a small molecule inhibitor of BTK, (Celgene Corporation, Summit, N.J.) (from 0 to 20 μM) and of 5FU (200 μM)+AVL-292 (from 0 to 20 μM); cell viability was evaluated at the end of the incubation using the calcein assay. 100% represent the percentage of living cells at day 0, before starting treatment with the drugs.

[20] = dasatinib 50 mpk oral gavage once a day 5 days a week
[21] = ibrutinib 25 mpk oral gavage once daily 5 days a week
[22] = 5FU 60 mg/kg ± dasatinib 50 mpk, p<0.05

## Cc1nc(Nc2ncc(C(=O)Nc3c(C)cccc3Cl)s2)cc(N2CCN(CCO)CC2)n1 [dasatinib]
[1]; [20]
  average volume of the tumor masses: ≈ 355 mm^3
[2]; 5FU 60 mg/kg, dasatinib 50 mpk
  average volume of the tumor masses: ≈ 343 mm^3

## O=c1[nH]cc(F)c(=O)[nH]1 [5FU, 5-fluorouracil]
[3]
  mortality at 200 µM: < 10%
[4]; 5FU 200 μM alone
  effect on viability: little effect
[5]
  response to the cytotoxic effect of 5FU: sensitive
[6]
  response to the cytotoxic effect of 5FU: resistant
[7]
  effective response (share of the cells): 10-15%
[8]; 10 μM 5FU, 10 μM ibrutinib, singularly or in combination
  cell death (photographs): no cell death
[8]; 5FU 200 μM
  cell death (photographs): massive cell death
[9]
  cell death (photographs): no cell death
[10]
  mortality at 200 µM: > 95%
[1]; 5FU 60 mpk, ibrutinib 25 mpk, 5FU+Ibr25 Vs. Ctrl p=0.012, Vs. Ibr25 p=0.039
  reduction of the tumor volume (significance): did not cause a significant reduction
[1]; [20]
  average volume of the tumor masses: ≈ 530 mm^3
[1]; [21]
  average volume of the tumor masses: ≈ 530 mm^3
[2]; [22]
  increase of the tumor doubling time versus untreated (or dasatinib-treated) group: significant
  reduction in the tumor volume versus untreated (or dasatinib-treated) group: significant
[2]; 5FU 60 mpk, ibrutinib 25 mpk
  increase of the tumor doubling time: significant
  reduction in the tumor volume: significant
  average volume of the tumor masses: ≈ 226 mm^3
[2]; 5FU 60 mpk, ibrutinib 50 mpk
  increase of the tumor doubling time: significant
  reduction in the tumor volume: significant
  average volume of the tumor masses: ≈ 226 mm^3
[2]; 5FU 60 mg/kg, dasatinib 50 mpk
  average volume of the tumor masses: 226 mm^3

## bevacizumab: monoclonal antibody used in anti-cancer therapy for targeting VEGF
[11]
  cell viability: does not affect

## panitumumab: monoclonal antibody used in anti-cancer therapy for targeting EGFR
[11]
  cell viability: does not affect

## C/C(O)=C(\C#N)C(=O)Nc1cc(Br)ccc1Br [LFM-A13, (2Z)-2-cyan-N-(2,5-dibromophenyl)-3-hydroxy-2-butenamide]
[12]
  level of reversion to the drug resistance, expressed as percentage fraction of dead cells: comparable
[13]
  percentage of cell deaths with LFM-A13 compared to without: high percentage of tumor cell death
[14]
  percentage of cell deaths with LFM-A13 compared to without: high percentage of tumor cell death
[15]
  caspase 3/7 activation: High levels

## C=CC(=O)N1CCC[C@@H](n2nc(-c3ccc(Oc4ccccc4)cc3)c3c(N)ncnc32)C1 [ibrutinib]
[16]
  number of cells (100% = living cells at day 0): below 100%
[4]; 10 μM ibrutinib
  percentage of live HCT116p53KO cells (100% = living cells at day 0): 130.2%
[4]; 20 μM ibrutinib
  percentage of live HCT116p53KO cells (100% = living cells at day 0): 116.1%
[1]; [21]
  average volume of the tumor masses: ≈ 760 mm^3
[2]; 5FU 60 mpk, ibrutinib 25 mpk
  average volume of the tumor masses: ≈ 347 mm^3
[2]; 5FU 60 mpk, ibrutinib 50 mpk
  average volume of the tumor masses: ≈ 372 mm^3
[17]
  cytotoxicity: not cytotoxic

## C=CC(=O)Nc1cccc(Nc2nc(Nc3ccc(OCCOC)cc3)ncc2F)c1 [AVL-292]
[18]; 5 μM combined with 200 μM 5FU
  cell death: 66.8%
[18]; 10 μM alone
  cell death: 19.9%
[18]; 20 μM alone
  cell death: 65.3%
[19]
  AVL-292 concentration from which sensitization to the cytotoxic effect of 5FU starts: ≥ 20 µM

Reference: patent publication US9820987B2, “Modulator compounds of drug resistance in epithelial tumor cells” (BIONSIL S.R.L. in Liquidazione, priority 2007, dated 2017)
